The target in one data set is h-cGAS (Homo sapiens, UniProt Q8N884). The data set can be described thus: Cell-free human cGAS enzyme inhibition assay (ATP depletion, Kinase-Glo Max). The format is biochemical. As to conditions: 3 h; for inhibition at 1 µM: read-out: h-cGAS, conc. 1 μM; for inhibition at 10 µM: read-out: h-cGAS, conc. 10 μM. Background: Kinase-Glo reads ATP consumption through a luciferase reaction.

Another data set concerns the target m-cGAS (Mus musculus, UniProt Q8C6L5). Nature of the data set: Cell-free mouse cGAS enzyme inhibition assay (ATP depletion, Kinase-Glo Max). Format: biochemical. As to conditions: 1 h; for inhibition at 10 µM: read-out: m-cGAS, conc. 10 μM; for inhibition at 1 µM: read-out: m-cGAS, conc. 1 μM.
In another data set the test system is IFNB. Nature of the data set: THP1-Dual cells transfected with DNA, Ifnb expression (Quantiluc). Format: cell-based. The settings on record: Homo sapiens; for inhibition at 10 µM: THP-1, 10 μM; for inhibition at 30 µM: THP-1, 30 μM. The procedure, abridged: (§1)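 THP1-Dual cells were treated with compounds at various dilutions for 4 h, then transfected with DNA (2 ug/ml) using lipofectamine and incubated overnight. Supernatant Ifnb reporter was read with Quantiluc and nfkb reporter with Quantiblue; viability was measured by CellTiter-Glo.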

Another data set relates to NFkB-SEAP. The data set can be described thus: THP1-Dual cells transfected with DNA, nfkb expression (Quantiblue). The settings on record: Homo sapiens; for inhibition at 10 µM: THP-1, 10 μM; for inhibition at 30 µM: THP-1, 30 μM. The format is cell-based. Put shortly: as §1
The subject of a further data set is THP1 cells. The data set can be described thus: THP1-Dual cells, cell viability (CellTiter-Glo). Format: cell-based. The procedure, abridged: as §1
Data set [1] in a line: Metabolic stability in human liver microsomes. The settings on record: for Remaining (NCF = 60 min) / Remaining (T = 60 min): human liver microsomes; for Remaining (NCF = 60 min): no co-factor (no NADPH); for Remaining (T = 60 min): 60 min with NADPH. (In general: Liver microsomes are a subcellular fraction often used to study metabolism.)
The nature of data set [2]: Metabolic stability in mouse liver microsomes. The settings on record: for Remaining (NCF = 60 min) / Remaining (T = 60 min): mouse liver microsomes; for Remaining (NCF = 60 min): no co-factor (no NADPH); for Remaining (T = 60 min): 60 min with NADPH.
Data set [3] in a line: Protein binding in mouse brain homogenates. The format is in vitro ADME. As to conditions: for recovery at 6 h / fraction unbound at 6 hr: brain homogenate; for fraction unbound at 6 hr: read-out: % BoundBrain (converted).

Sequence of h-cGAS (Q8N884 whole entry): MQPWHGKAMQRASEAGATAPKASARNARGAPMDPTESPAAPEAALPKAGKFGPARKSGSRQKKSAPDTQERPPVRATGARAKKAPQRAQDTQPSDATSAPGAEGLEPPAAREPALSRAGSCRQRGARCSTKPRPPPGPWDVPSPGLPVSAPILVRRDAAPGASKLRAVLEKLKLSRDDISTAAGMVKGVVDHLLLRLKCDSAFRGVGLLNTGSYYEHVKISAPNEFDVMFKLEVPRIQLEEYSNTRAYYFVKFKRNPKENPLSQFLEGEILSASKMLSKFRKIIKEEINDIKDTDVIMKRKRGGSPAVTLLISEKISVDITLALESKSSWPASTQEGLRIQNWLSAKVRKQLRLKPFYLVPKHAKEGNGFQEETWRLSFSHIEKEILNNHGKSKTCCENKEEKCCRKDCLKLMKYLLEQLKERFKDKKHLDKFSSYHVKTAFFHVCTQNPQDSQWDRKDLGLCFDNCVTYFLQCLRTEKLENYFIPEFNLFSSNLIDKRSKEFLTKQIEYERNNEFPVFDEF
Sequence of m-cGAS (Q8C6L5 whole entry): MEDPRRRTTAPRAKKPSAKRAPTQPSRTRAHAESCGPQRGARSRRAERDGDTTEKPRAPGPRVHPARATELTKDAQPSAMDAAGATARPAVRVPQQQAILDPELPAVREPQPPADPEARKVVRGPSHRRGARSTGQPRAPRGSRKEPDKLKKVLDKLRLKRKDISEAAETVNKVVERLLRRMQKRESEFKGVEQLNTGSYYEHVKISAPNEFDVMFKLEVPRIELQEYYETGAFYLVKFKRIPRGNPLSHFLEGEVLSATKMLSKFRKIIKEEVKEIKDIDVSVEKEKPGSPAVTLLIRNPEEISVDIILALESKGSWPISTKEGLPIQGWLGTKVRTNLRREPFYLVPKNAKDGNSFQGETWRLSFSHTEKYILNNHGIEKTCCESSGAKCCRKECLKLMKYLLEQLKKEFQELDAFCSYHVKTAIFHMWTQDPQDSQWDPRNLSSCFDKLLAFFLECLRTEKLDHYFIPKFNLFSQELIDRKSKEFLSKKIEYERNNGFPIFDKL

`Cn1cc(-c2cc(Cl)c(Cl)c3c2c2c(n3C)CCN(C(=O)CN)C2)cn1` [Compound 11]: at h-cGAS, the inhibition at 1 µM is 75 to 100% and the inhibition at 10 µM is 75 to 100%. In addition, the inhibition at 10 µM on m-cGAS lay in the range of 25 to 49%. For the same compound, in the data set with IFNB, the inhibition at 10 µM fell in the range of 50 to 74% and the inhibition at 30 µM lay in the range of 75 to 100%. In the data set with NFkB-SEAP, this compound showed an inhibition at 10 µM of under 24% and an inhibition at 30 µM of 50 to 74%. Besides, in the data set with THP1 cells, the “Cell viability 10 μM” value is “++ (+, ++, and +++ mean the compound respectively shows 25-49%; 50-74%; or 75-100% viability to cells)”; the “Cell viability 30 μM” value is recorded as “− (Cell viability <24%, in THP1 cells is expressed as “−”)”. Further, in data set [1], the “Remaining (NCF = 60 min)” value turned out to be 116.1% and the “Remaining (T = 60 min)” value was determined as 88.2%. Moreover, in data set [1] (human, liver microsomes), the CLint scaled (as a rule, a measure of how fast metabolising enzymes remove a compound, apart from limits set by blood flow) is under 8.6 mL/min/kg; the half-life – broadly, how long it takes for the measured level to halve – is over 145 min; the microsomal CLint (as a rule, a measure of how fast metabolising enzymes remove a compound, apart from limits set by blood flow) is under 9.6 µL/min/mg. Besides, in data set [2], the “Remaining (NCF = 60 min)” value worked out at 97.7% and the “Remaining (T = 60 min)” value was 80.1%. In addition, in data set [2] (mouse, liver microsomes), the CLint scaled was under 38 mL/min/kg, the half-life was over 145 min and the microsomal CLint was under 9.6 µL/min/mg.
With `Cn1ccc(-c2cc(Cl)c(Cl)c3oc4c(c23)CN(C(=O)CO)CC4)n1` [Compound 24], at h-cGAS, the inhibition at 1 µM lay in the range of 50 to 74% and the inhibition at 10 µM was 75 to 100%. Moreover, at m-cGAS, the inhibition at 1 µM lay in the range of 0 to 24% and the inhibition at 10 µM lay within 50 to 74%. Moreover, in the data set with IFNB, the inhibition at 10 µM lay within 50 to 74% and the inhibition at 30 µM was in the range of 75 to 100%. For the same compound, the inhibition at 10 µM in the data set on NFkB-SEAP is under 24%. In addition, in the data set with THP1 cells, the “Cell viability 10 μM” value was “+++ (+, ++, and +++ mean the compound respectively shows 25-49%; 50-74%; or 75-100% viability to cells)”; the “Cell viability 30 μM” value was “+++ (+, ++, and +++ mean the compound respectively shows 25-49%; 50-74%; or 75-100% viability to cells)”. Besides, in data set [2], the “Remaining (NCF = 60 min)” value was found to be 116.2% and the “Remaining (T = 60 min)” value came out at 6.3%. Further, in data set [2] (mouse, liver microsomes), the CLint scaled was under 23.1 mL/min/kg, the half-life was over 185 min and the intrinsic clearance (microsomal CLint) was under 7.5 µL/min/mg.
Turning to `Cn1cc(-c2cc(Cl)c(Cl)c3oc4c(c23)CN(C(=O)CN)CC4)cn1` [Compound 33], at h-cGAS, the inhibition at 1 µM was 50 to 74% and the inhibition at 10 µM lay within 75 to 100%. At m-cGAS, the inhibition at 1 µM was 75 to 100% and the inhibition at 10 µM was 75 to 100%. In the data set with IFNB, this compound displayed an inhibition at 10 µM of 25 to 49% and an inhibition at 30 µM of 75 to 100%. For the same compound, in the data set on NFkB-SEAP, the inhibition at 10 µM lay within 25 to 49% and the inhibition at 30 µM fell in the range of 75 to 100%. In the data set on THP1 cells, the “Cell viability 10 μM” value is “+++ (+, ++, and +++ mean the compound respectively shows 25-49%; 50-74%; or 75-100% viability to cells)”; the “Cell viability 30 μM” value is “+ (+, ++, and +++ mean the compound respectively shows 25-49%; 50-74%; or 75-100% viability to cells)”. Moreover, in data set [3], the LogK is given as over 4.39, the “% Remaining at 6 hr” value was 90.87%, the recovery at 6 h was under 82.4% and the fraction unbound at 6 hr was under 4e-05. For the same compound, in data set [1], the “Remaining (NCF = 60 min)” value amounted to 109.6% and the “Remaining (T = 60 min)” value was 87.6%. In addition, in data set [1] (human, liver microsomes), the CLint scaled was under 8.6 mL/min/kg, the half-life was over 145 min and the microsomal CLint is under 9.6 µL/min/mg. In data set [2], the “Remaining (NCF = 60 min)” value stood at 90.0% and the “Remaining (T = 60 min)” value stood at 72.5%. In data set [2] (mouse, liver microsomes), this compound gave a CLint scaled of 38.5 mL/min/kg, a half-life of 142 min and a microsomal CLint of 9.7 µL/min/mg.
As to `Cn1cc(-c2cc(Cl)c(Cl)c3sc4c(c23)CN(C(=O)CN)CC4)cn1` [Compound 54], at h-cGAS, the inhibition at 1 µM fell in the range of 50 to 74% and the inhibition at 10 µM was 75 to 100%. Besides, on m-cGAS, the inhibition at 1 µM fell in the range of 0 to 24% and the inhibition at 10 µM was in the range of 50 to 74%. Also, in the data set on IFNB, the inhibition at 10 µM was 75 to 100% and the inhibition at 30 µM is 75 to 100%. In the data set on NFkB-SEAP, this compound registered an inhibition at 10 µM of 75 to 100% and an inhibition at 30 µM of 75 to 100%. Besides, in the data set with THP1 cells, the “Cell viability 10 μM” value is “++ (+, ++, and +++ mean the compound respectively shows 25-49%; 50-74%; or 75-100% viability to cells)”; the “Cell viability 30 μM” value is on record as “− (Cell viability <24%, in THP1 cells is expressed as “−”)”. For the same compound, in data set [1], the “Remaining (NCF = 60 min)” value stood at 129.8% and the “Remaining (T = 60 min)” value is recorded as 85.4%. In data set [1] (human, liver microsomes), the CLint scaled was under 8.6 mL/min/kg, the half-life is over 145 min and the microsomal CLint is under 9.6 µL/min/mg. Moreover, in data set [2], the “Remaining (NCF = 60 min)” value is listed as 94.5% and the “Remaining (T = 60 min)” value is on record as 82.0%. In data set [2] (mouse, liver microsomes), this compound displayed a CLint scaled of under 38 mL/min/kg, a half-life of over 145 min and a microsomal CLint of under 9.6 µL/min/mg.
Consider `Cn1cc(-c2cc(Cl)c(Cl)c3sc4c(c23)CCN(C(=O)CN)C4)cn1` [Compound 74], for which, at h-cGAS, the inhibition at 1 µM lay within 0 to 24% and the inhibition at 10 µM fell in the range of 25 to 49%. Further, at m-cGAS, the inhibition at 1 µM fell in the range of 25 to 49% and the inhibition at 10 µM lay in the range of 75 to 100%. In the data set with IFNB, this compound gave an inhibition at 10 µM of 75 to 100% and an inhibition at 30 µM of 75 to 100%. In the data set with NFkB-SEAP, this compound displayed an inhibition at 10 µM of 25 to 49% and an inhibition at 30 µM of 50 to 74%. Further, in the data set on THP1 cells, the “Cell viability 10 μM” value is “+++ (+, ++, and +++ mean the compound respectively shows 25-49%; 50-74%; or 75-100% viability to cells)”; the “Cell viability 30 μM” value was “− (Cell viability <24%, in THP1 cells is expressed as “−”)”. For the same compound, in data set [3], the LogK is 1.12, the “% Remaining at 6 hr” value amounted to 98.24%, the recovery at 6 h was determined as 92.8% and the fraction unbound at 6 hr is 0.0706. Moreover, in data set [1], the “Remaining (NCF = 60 min)” value came out at 89.2% and the “Remaining (T = 60 min)” value is reported as 93.6%. Moreover, in data set [1] (human, liver microsomes), the CLint scaled was under 8.6 mL/min/kg, the half-life is over 145 min and the microsomal CLint is under 9.6 µL/min/mg. Besides, in data set [2], the “Remaining (NCF = 60 min)” value was 97.8% and the “Remaining (T = 60 min)” value is recorded as 84.8%. In data set [2] (mouse, liver microsomes), this compound gave an intrinsic metabolic clearance (CLint scaled) of under 38 mL/min/kg, a half-life of over 145 min and a microsomal CLint of under 9.6 µL/min/mg.
In the case of `Cn1cc(-c2cc(Cl)c(Cl)c3nc4c(n23)CN(C(=O)CO)CC4)cn1` [Compound 99], the inhibition at 10 µM on h-cGAS was 0 to 24%. Also, the inhibition at 10 µM at m-cGAS lay within 0 to 24%. In data set [3], the LogK is reported as 0.64, the “% Remaining at 6 hr” value is given as 99.35%, the recovery at 6 h turned out to be 90.1% and the fraction unbound at 6 hr was 0.19.
Consider `O=C(O)Cc1ccccc1Nc1c(Cl)cccc1Cl` [Diclofenac, reference compound], for which, in data set [1], the “Remaining (NCF = 60 min)” value amounted to 114.8% and the “Remaining (T = 60 min)” value worked out at 0.0%. Besides, in data set [1] (human, liver microsomes), the “CLint(mic)” value was determined as 323.6 µL/min/mg and the “T½” value was 4.3 min. For the same compound, in data set [2], the “Remaining (NCF = 60 min)” value amounted to 100.4% and the “Remaining (T = 60 min)” value came to 33.1%. Besides, in data set [2] (mouse, liver microsomes), the half-life worked out at 38 min and the microsomal CLint was 36.5 µL/min/mg.
Consider `CCCc1nc2c(C)cc(-c3nc4ccccc4n3C)cc2n1Cc1ccc(-c2ccccc2C(=O)O)cc1` [Telmisartan, reference compound], for which, in data set [3], the LogK is given as 1.72, the “% Remaining at 6 hr” value was 103.38%, the recovery at 6 h is 99.3% and the fraction unbound at 6 hr is 0.0188.
For `C[C@]12CC[C@H]3[C@@H](CCC4=CC(=O)CC[C@@]43C)[C@@H]1CC[C@@H]2O` [Testosterone, reference compound], in data set [1], the “Remaining (NCF = 60 min)” value was 109.9% and the “Remaining (T = 60 min)” value was 4.0%. In data set [1] (human, liver microsomes), this compound had a CLint scaled of 98.2 mL/min/kg. In data set [2], the “Remaining (NCF = 60 min)” value was determined as 88.7% and the “Remaining (T = 60 min)” value is given as 0.0%. In data set [2] (mouse, liver microsomes), the CLint scaled was determined as 1490 mL/min/kg, the “CLint(mic)” value turned out to be 375.9 µL/min/mg and the “T½” value is 3.7 min.

The values are drawn from US20250163052A1, “cGAS INHIBITORS AND USES THEREOF” (Cornell University, priority 2022, published 2025).
